Test results: patent publication US10344025B2, “GLS1 inhibitors for treating disease” (Board of Regents, The University of Texas System, priority 2014, dated 2019)

Legend:
[1] = target: purified recombinant human GAC (GLS1) (Homo sapiens (Human), UniProt O94925); experiment: GLS1 Enzymatic Activity Assay (dual-coupled enzymatic assay, resorufin/Amplex UltraRed readout); assay type: biochemical;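 further: glutamate from GAC coupled via glutamate oxidase and peroxidase to resorufin, read as fluorescence (ex 530, em 590 nm) kinetically or at 20 min, four-parameter logistic IC50 fit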
Chain of purified recombinant human GAC (GLS1) (O94925 other isoform, or with tags, fused parts or gaps): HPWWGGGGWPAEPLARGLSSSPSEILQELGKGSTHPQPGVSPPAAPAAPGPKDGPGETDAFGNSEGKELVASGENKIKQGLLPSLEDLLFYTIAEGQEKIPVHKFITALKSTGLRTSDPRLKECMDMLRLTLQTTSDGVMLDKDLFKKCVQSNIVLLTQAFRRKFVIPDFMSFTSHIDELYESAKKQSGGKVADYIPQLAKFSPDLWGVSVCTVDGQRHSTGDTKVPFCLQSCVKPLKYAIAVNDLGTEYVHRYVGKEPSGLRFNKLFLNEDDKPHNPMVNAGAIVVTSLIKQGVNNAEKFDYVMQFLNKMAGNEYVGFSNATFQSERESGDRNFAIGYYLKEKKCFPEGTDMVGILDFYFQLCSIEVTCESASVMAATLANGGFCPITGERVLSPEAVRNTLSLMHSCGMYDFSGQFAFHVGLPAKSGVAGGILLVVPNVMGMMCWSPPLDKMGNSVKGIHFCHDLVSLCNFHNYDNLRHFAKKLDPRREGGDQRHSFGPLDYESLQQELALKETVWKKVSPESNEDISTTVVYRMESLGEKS

A549 cells = experiment: Proliferation Assay (A549 viability, Cell Titer Fluor, 72 hours); assay type: cell-based; conditions: Homo sapiens, A549, 72 h
Procedure, shortened: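 A549 cells seeded at 1000 cells/well, rested 24 h, then exposed to compound in 0.5% DMSO for 72 h at 37 °C. Viability read by Cell Titer Fluor fluorescence; IC50 from four-parameter logistic fit.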

Row | Compound | IC50 [1] | EC50 (A549 cells)
1 | O=C(NCc1cn2ccsc2n1)c1cn(CCC(F)Cn2cc(C(=O)NCc3cc(C(F)(F)F)ccn3)nn2)nn1 (centres unmarked) [Example 155, 1-{3-fluoro-4-[4-({[4-(trifluoromethyl)pyridin-2-yl]methyl}carbamoyl)-1H-1,2,3-triazol-1-yl]butyl}-N-{imidazo[2,1-b][1,3]thiazol-6-ylmethyl}-1H-1,2,3-triazole-4-carboxamide] | < 100 nM | 500 to 5000 nM
2 | O=C(NCc1ccc(C(F)(F)F)cn1)c1cn(CCC(F)Cn2cc(C(=O)NCc3cc(C(F)(F)F)ccn3)nn2)nn1 (centres unmarked) [Example 156, 1-{2-fluoro-4-[4-({[5-(trifluoromethyl)pyridin-2-yl]methyl}carbamoyl)-1H-1,2,3-triazol-1-yl]butyl}-N-{[4-(trifluoromethyl)pyridin-2-yl]methyl}-1H-1,2,3-triazole-4-carboxamide] | < 100 nM | < 100 nM
3 | Cc1ccnc(CNC(=O)c2cn(CCC(F)Cn3cc(C(=O)NCc4cc(C(F)(F)F)ccn4)nn3)nn2)c1 (centres unmarked) [Example 159, 1-[2-fluoro-4-(4-{[(4-methylpyridin-2-yl)methyl]carbamoyl}-1H-1,2,3-triazol-1-yl)butyl]-N-{[4-(trifluoromethyl)pyridin-2-yl]methyl}-1H-1,2,3-triazole-4-carboxamide] | < 100 nM | 100 to 500 nM
4 | CNC(=O)c1cn(CCCCc2ccc(NC(=O)Cc3cc(OC(F)(F)F)ccc3F)nn2)nn1 [Example 160, 1-[4-(6-{2-[2-fluoro-5-(trifluoromethoxy)phenyl]acetamido}pyridazin-3-yl)butyl]-N-methyl-1H-1,2,3-triazole-4-carboxamide] | < 100 nM | < 100 nM
5 | CNC(=O)c1cn(CCC(F)Cn2cc(C(=O)NCc3ccccn3)nn2)nn1 (centres unmarked) [Example 163, 1-(3-fluoro-4-{4-[(pyridin-2-ylmethyl)carbamoyl]-1H-1,2,3-triazol-1-yl}butyl)-N-methyl-1H-1,2,3-triazole-4-carboxamide] | 500 to 5000 nM | 500 to 5000 nM
6 | CNC(=O)c1cn(CCC(F)Cn2cc(C(=O)NCc3ccccc3)nn2)nn1 (centres unmarked) [Example 165, 1-{4-[4-(benzylcarbamoyl)-1H-1,2,3-triazol-1-yl]-3-fluorobutyl}-N-methyl-1H-1,2,3-triazole-4-carboxamide] | 100 to 500 nM | 500 to 5000 nM
7 | CNC(=O)c1cn(CCC(F)Cn2cc(C(=O)NCc3cccc(CNC(=O)OC(C)(C)C)c3)nn2)nn1 (centres unmarked) [Example 166, tert-butyl N-[(3-{[(1-{2-fluoro-4-[4-(methylcarbamoyl)-1H-1,2,3-triazol-1-yl]butyl}-1H-1,2,3-triazol-4-yl)formamido]methyl}phenyl)methyl]carbamate] | < 100 nM | 100 to 500 nM
8 | N#CCNC(=O)c1cn(CCC(F)Cn2cc(C(=O)NCc3cc(OC(F)(F)F)ccc3F)nn2)nn1 (centres unmarked) [Example 168, N-(cyanomethyl)-1-{3-fluoro-4-[4-({[2-fluoro-5-(trifluoromethoxy)phenyl]methyl}carbamoyl)-1H-1,2,3-triazol-1-yl]butyl}-1H-1,2,3-triazole-4-carboxamide] | < 100 nM | 100 to 500 nM
9 | CNC(=O)c1cn(CCCCc2ccc(NC(=O)Cc3cccc(OCCOC)c3)nn2)nn1 [Example 173, 1-[4-(6-{2-[3-(2-methoxyethoxy)phenyl]acetamido}pyridazin-3-yl)butyl]-N-methyl-1H-1,2,3-triazole-4-carboxamide] | 100 to 500 nM | 100 to 500 nM
10 | CC(=O)Nc1ccc(CCCCn2cc(C(=O)NCc3cccc(OC(F)(F)F)c3)nn2)nn1 [Example 174, 1-[4-(6-acetamidopyridazin-3-yl)butyl]-N-{[3-(trifluoromethoxy)phenyl]methyl}-1H-1,2,3-triazole-4-carboxamide] | < 100 nM | 100 to 500 nM
11 | CNC(=O)c1cn(CCCCc2ccc(NC(=O)Cc3cccc(N4CCOCC4)c3)nn2)nn1 [Example 178, N-methyl-1-[4-(6-{2-[3-(morpholin-4-yl)phenyl]acetamido}pyridazin-3-yl)butyl]-1H-1,2,3-triazole-4-carboxamide] | < 100 nM | 100 to 500 nM
12 | CNC(=O)c1cn(CCC(F)Cn2cc(C(=O)NCc3cccc(C#N)c3)nn2)nn1 (centres unmarked) [Example 182, 1-[4-(4-{[(3-cyanophenyl)methyl]carbamoyl}-1H-1,2,3-triazol-1-yl)-3-fluorobutyl]-N-methyl-1H-1,2,3-triazole-4-carboxamide] | 100 to 500 nM | > 5000 nM

Next, values leading:

Row | IC50 [1] | EC50 (A549 cells) | Compound
13 | < 100 nM | < 100 nM | O=C(NCc1cc(C2CC2)ccn1)c1cn(CCC(F)Cn2cc(C(=O)NCc3cncc(C(F)(F)F)c3)nn2)nn1 (centres unmarked) [Example 152, N-[(4-cyclopropylpyridin-2-yl)methyl]-1-{3-fluoro-4-[4-({[5-(trifluoromethyl)pyridin-3-yl]methyl}carbamoyl)-1H-1,2,3-triazol-1-yl]butyl}-1H-1,2,3-triazole-4-carboxamide]
14 | < 100 nM | 100 to 500 nM | CNC(=O)c1cn(CCC(F)Cn2cc(C(=O)NCc3cc(OC(F)(F)F)ccc3F)nn2)nn1 (centres unmarked) [Example 153, 1-{3-fluoro-4-[4-({[2-fluoro-5-(trifluoromethoxy)phenyl]methyl}carbamoyl)-1H-1,2,3-triazol-1-yl]butyl}-N-methyl-1H-1,2,3-triazole-4-carboxamide]
15 | 500 to 5000 nM | 500 to 5000 nM | CCNC(=O)c1cn(CCC(F)Cn2cc(C(=O)NCc3cc(C(F)(F)F)ccn3)nn2)nn1 (centres unmarked) [Example 154, N-ethyl-1-{3-fluoro-4-[4-({[4-(trifluoromethyl)pyridin-2-yl]methyl}carbamoyl)-1H-1,2,3-triazol-1-yl]butyl}-1H-1,2,3-triazole-4-carboxamide]
16 | < 100 nM | < 100 nM | O=C(NCc1cc(C(F)(F)F)ccn1)c1cn(CCCCn2cc(C(=O)NCc3cc(C(F)(F)F)ccn3)nn2)nn1 [Example 158, N-{[4-(trifluoromethyl)pyridin-2-yl]methyl}-1-{4-[4-({[4-(trifluoromethyl)pyridin-2-yl]methyl}carbamoyl)-1H-1,2,3-triazol-1-yl]butyl}-1H-1,2,3-triazole-4-carboxamide]
17 | < 100 nM | < 100 nM | CNC(=O)c1cn(CCCCc2ccc(NC(=O)Cc3ccccc3)nn2)nn1 [Example 161, N-methyl-1-{4-[6-(2-phenylacetamido)pyridazin-3-yl]butyl}-1H-1,2,3-triazole-4-carboxamide]
18 | 100 to 500 nM | 100 to 500 nM | CNC(=O)c1cn(CCC(F)Cn2cc(C(=O)NCc3cccc(OC(F)(F)F)c3)nn2)nn1 (centres unmarked) [Example 162, 1-{3-fluoro-4-[4-({[3-(trifluoromethoxy)phenyl]methyl}carbamoyl)-1H-1,2,3-triazol-1-yl]butyl}-N-methyl-1H-1,2,3-triazole-4-carboxamide]
19 | < 100 nM | 100 to 500 nM | CNC(=O)c1cn(CCC(F)Cn2cc(C(=O)NCc3cncc(C4CC4)c3)nn2)nn1 (centres unmarked) [Example 164, 1-[4-(4-{[(5-cyclopropylpyridin-3-yl)methyl]carbamoyl}-1H-1,2,3-triazol-1-yl)-3-fluorobutyl]-N-methyl-1H-1,2,3-triazole-4-carboxamide]
20 | 100 to 500 nM | 500 to 5000 nM | CNC(=O)c1cn(CCC(F)Cn2cc(C(=O)NCc3cnc4ccccc4c3)nn2)nn1 (centres unmarked) [Example 170, 1-(3-fluoro-4-{4-[(quinolin-3-ylmethyl)carbamoyl]-1H-1,2,3-triazol-1-yl}butyl)-N-methyl-1H-1,2,3-triazole-4-carboxamide]
21 | 100 to 500 nM | 500 to 5000 nM | CNC(=O)c1cn(CCC(F)Cn2cc(C(=O)NCc3cncc4ccccc34)nn2)nn1 (centres unmarked) [Example 171, 1-(3-fluoro-4-{4-[(isoquinolin-4-ylmethyl)carbamoyl]-1H-1,2,3-triazol-1-yl}butyl)-N-methyl-1H-1,2,3-triazole-4-carboxamide]
22 | < 100 nM | < 100 nM | CNC(=O)c1cn(CCCCc2ccc(NC(=O)Cc3cccc(CNC(=O)OC(C)(C)C)c3)nn2)nn1 [Example 172]
23 | < 100 nM | 100 to 500 nM | CC(=O)Nc1ccc(CCCCn2cc(C(=O)NCc3cc(C(F)(F)F)ccn3)nn2)nn1 [Example 175, 1-[4-(6-acetamidopyridazin-3-yl)butyl]-N-{[4-(trifluoromethyl)pyridin-2-yl]methyl}-1H-1,2,3-triazole-4-carboxamide]
24 | < 100 nM | 100 to 500 nM | O=C(NCc1cccc(OC(F)(F)F)c1)c1cn(CCCCc2ccc(NC(=O)C3CC3)nn2)nn1 [Example 176, 1-[4-(6-cyclopropaneamidopyridazin-3-yl)butyl]-N-{[3-(trifluoromethoxy)phenyl]methyl}-1H-1,2,3-triazole-4-carboxamide]
25 | < 100 nM | 100 to 500 nM | O=C(NCc1cc(C(F)(F)F)ccn1)c1cn(CCCCc2ccc(NC(=O)C3CC3)nn2)nn1 [Example 177, 1-[4-(6-cyclopropaneamidopyridazin-3-yl)butyl]-N-{[4-(trifluoromethyl)pyridin-2-yl]methyl}-1H-1,2,3-triazole-4-carboxamide]
26 | < 100 nM | 500 to 5000 nM | CNC(=O)c1cn(CCCCc2ccc(NC(=O)[C@@H](C)c3ccccc3)nn2)nn1 [Example 179, N-methyl-1-(4-{6-[(2S)-2-phenylpropanamido]pyridazin-3-yl}butyl)-1H-1,2,3-triazole-4-carboxamide]
27 | < 100 nM | 100 to 500 nM | CNC(=O)c1cn(CCCCc2ccc(NC(=O)Cc3cccc(Cl)c3F)nn2)nn1 [Example 180, 1-(4-{6-[2-(3-chloro-2-fluorophenyl)acetamido]pyridazin-3-yl}butyl)-N-methyl-1H-1,2,3-triazole-4-carboxamide]
28 | 100 to 500 nM | 500 to 5000 nM | CNC(=O)c1cn(CCC(F)Cn2cc(C(=O)NCc3ccc(OC(F)F)cc3)nn2)nn1 (centres unmarked) [Example 181, 1{4-[4-({[4-(difluoromethoxy)phenyl]methyl}carbamoyl)-1H-1,2,3-triazol-1-yl]-3-fluorobutyl}-N-methyl-1H-1,2,3-triazole-4-carboxamide]
